Measurements reported in ChEMBL document CHEMBL5137032, “Design, synthesis of DNA-interactive 4-thiazolidinone-based indolo-/pyrroloazepinone conjugates as potential cytotoxic and topoisomerase I inhibitors” (Eur J Med Chem, 2022).
Activity calls are given as the source filed them. The calls are words filed in the database; no cut-off is given here.

Experiments:
Format in all cases: functional, cell-based
HT-29 = experiment: Cytotoxicity against human HT-29 cells assessed as cell growth inhibition incubated for 48 hrs by MTT assay; conditions: HT-29, 48 h
MCF7 = experiment: Cytotoxicity against human MCF7 cells assessed as cell growth inhibition incubated for 48 hrs by MTT assay; conditions: MCF7, 48 h
SK-MEL-28 [1] = experiment: Cytotoxicity against human SK-MEL-28 cells assessed as cell growth inhibition incubated for 48 hrs by MTT assay; conditions: SK-MEL-28, 48 h
HCT-116 = experiment: Cytotoxicity against human HCT-116 cells assessed as cell growth inhibition incubated for 48 hrs by MTT assay; conditions: HCT-116, 48 h
A549 [2] = experiment: Cytotoxicity against human A549 cells assessed as cell growth inhibition incubated for 48 hrs by MTT assay; conditions: A549, 48 h
A549 [3] = experiment: Induction of intracellular ROS generation in human A549 cells at […] incubated for 48 hrs by […] fluorescence microscopic analysis; conditions: dose 0.47 µM
SK-MEL-28 [4] = experiment: Induction of intracellular ROS generation in human SK-MEL-28 cells at 2.26 uM incubated for 48 hrs by […] fluorescence microscopic analysis

Compound	IC50 (HT-29) [µM]	IC50 (MCF7) [µM]	IC50 (SK-MEL-28 [1]) [µM]	IC50 (HCT-116) [µM]	IC50 (A549 [2]) [µM]	Activity (A549 [3])	Activity (SK-MEL-28 [4])
O=c1[nH]cc(F)c(=O)[nH]1 [FLUOROURACIL]	23.9	21.1	14.6	–	–	–	–
O=C1N/C(=N\CCc2ccc(F)cc2)S/C1=C1/CCNC(=O)c2[nH]c3ccccc3c21	> 50	> 50	> 50	> 50	> 50	–	–
CC(C)(C)c1ccc(C/N=C2\NC(=O)/C(=C3\CCNC(=O)c4[nH]c5ccccc5c43)S2)cc1	13.6	9.01	8.97	15.9	19.3	–	–
O=C1N/C(=N\Cc2ccc(F)cc2)S/C1=C1/CCNC(=O)c2[nH]c3ccccc3c21	38	40.3	> 50	30.8	36.5	–	–
COc1ccc(C/N=C2\NC(=O)/C(=C3\CCNC(=O)c4[nH]c5ccccc5c43)S2)cc1	12.3	6.33	9.68	17.5	3.73	–	–
O=C1N/C(=N\Cc2cccc(Cl)c2)S/C1=C1/CCNC(=O)c2[nH]ccc21	35.3	20.7	34.6	–	35.2	–	–
COc1ccc(C/N=C2\NC(=O)/C(=C3\CCNC(=O)c4[nH]c5ccccc5c43)S2)cc1OC	> 50	23.7	25.1	16.4	30	–	–
O=C1N/C(=N\Cc2ccc(F)cc2)S/C1=C1/CCNC(=O)c2[nH]ccc21	26	43.1	11.2	16.9	22.4	–	–
CC(C)(C)c1ccc(C/N=C2\NC(=O)/C(=C3\CCNC(=O)c4[nH]ccc43)S2)cc1	43.4	18.9	23.5	> 100	43.9	–	–
O=C1N/C(=N\Cc2ccccc2)S/C1=C1/CCNC(=O)c2[nH]ccc21	36.5	31.1	38.4	49.7	26.9	–	–
COc1ccc(CC/N=C2\NC(=O)/C(=C3\CCNC(=O)c4[nH]c5ccccc5c43)S2)cc1	15	9.41	3.49	18.6	20.5	–	–
COc1cccc2c1C(=O)c1c(O)c3c(c(O)c1C2=O)C[C@@](O)(C(=O)CO)C[C@@H]3O[C@H]1C[C@H](N)[C@H](O)[C@H](C)O1 [DOXORUBICIN]	–	–	1.64	7.41	–	–	–
O=C1N/C(=N\Cc2ccc(Cl)cc2)S/C1=C1/CCNC(=O)c2[nH]c3ccccc3c21	39.9	46.8	> 50	22.7	33.6	–	–
O=C1N/C(=N\Cc2ccc(Cl)cc2)S/C1=C1/CCNC(=O)c2[nH]ccc21	> 100	> 100	> 100	> 100	> 100	–	–
O=C1N/C(=N\Cc2ccccc2)S/C1=C1/CCNC(=O)c2[nH]c3ccccc3c21	31.8	31	29.8	34.4	48.2	–	–
O=C1N/C(=N\Cc2ccc3c(c2)OCO3)S/C1=C1/CCNC(=O)c2[nH]c3ccccc3c21	36.5	31.4	> 50	21.4	> 50	–	–
COc1ccc(C/N=C2\NC(=O)/C(=C3\CCNC(=O)c4c3ccn4C)S2)cc1	32.4	> 100	> 100	> 100	> 100	–	–
COc1ccc(C/N=C2\NC(=O)/C(=C3\CCNC(=O)c4[nH]ccc43)S2)cc1	11.5	6.24	12.1	19.4	18.3	–	–
O=C1N/C(=N\Cc2cccc(Cl)c2)S/C1=C1/CCNC(=O)c2[nH]c3ccccc3c21	> 50	28.1	23.8	25.2	33.7	–	–
O=C1N/C(=N\Cc2ccccc2Cl)S/C1=C1/CCNC(=O)c2[nH]ccc21	> 100	21.2	> 100	> 50	> 100	–	–
O=C1N/C(=N\Cc2ccc3c(c2)OCO3)S/C1=C1/CCNC(=O)c2[nH]ccc21	16.5	4.31	11.2	4.25	19.9	–	–
O=C1N/C(=N\Cc2ccc(C(F)(F)F)cc2)S/C1=C1/CCNC(=O)c2[nH]ccc21	> 50	> 100	> 100	> 100	> 100	–	–
O=C1N/C(=N\CCc2ccccc2)S/C1=C1/CCNC(=O)c2[nH]ccc21	24.9	21	12.3	17.8	19.5	–	–
COc1ccc(CC/N=C2\NC(=O)/C(=C3\CCNC(=O)c4[nH]ccc43)S2)cc1	8.14	6.47	7.86	10.8	16	–	–
CC[C@@]1(O)C(=O)OCc2c1cc1n(c2=O)Cc2cc3ccccc3nc2-1 [CAMPTOTHECIN]	–	–	2.26	–	0.47	Active	Active
Cn1c2c(c3ccccc31)/C(=C1\S/C(=N/Cc3ccccc3)NC1=O)CCNC2=O	> 50	> 50	> 50	> 50	> 50	–	–
